Measurements reported in the NIST ThermoML archive (doi:10.1021/je900596d).
Numbers after ± are expanded uncertainties.

Settings: Fluid (supercritical or subcritical phases), Vibrating tube method

FC(F)=C(F)C(F)(F)F [hexafluoropropene]
mass density [kg/m3]
Settings	343.26 K	348.12 K
3.1 kPa	–	0.11 ± 0.03
3.7 kPa	–	0.12 ± 0.03
4.8 kPa	–	0.23 ± 0.03
5.4 kPa	–	0.18 ± 0.03
6.4 kPa	–	0.27 ± 0.03
7.4 kPa	–	0.23 ± 0.03
8.3 kPa	–	0.31 ± 0.03
8.9 kPa	–	0.35 ± 0.03
9.9 kPa	–	0.43 ± 0.03
11.5 kPa	–	0.57 ± 0.03
15.2 kPa	–	0.72 ± 0.03
17 kPa	–	0.83 ± 0.03
18.8 kPa	–	0.9 ± 0.03
22.4 kPa	–	1.11 ± 0.03
24.2 kPa	–	1.25 ± 0.03
27.7 kPa	–	1.44 ± 0.03
29.5 kPa	–	1.44 ± 0.03
31.2 kPa	–	1.52 ± 0.03
34.9 kPa	–	1.74 ± 0.03
36.7 kPa	–	1.87 ± 0.03
38.3 kPa	–	1.89 ± 0.03
41 kPa	–	2.08 ± 0.03
43.9 kPa	–	2.27 ± 0.03
46.5 kPa	–	2.39 ± 0.03
49.3 kPa	–	2.49 ± 0.03
55.8 kPa	–	2.86 ± 0.03
59.3 kPa	–	3.01 ± 0.03
62.6 kPa	–	3.24 ± 0.03
65.9 kPa	–	3.31 ± 0.03
72.5 kPa	–	3.77 ± 0.03
75.7 kPa	–	3.95 ± 0.03
78.9 kPa	–	4.06 ± 0.03
82.3 kPa	–	4.24 ± 0.03
89 kPa	–	4.57 ± 0.03
92.4 kPa	–	4.78 ± 0.03
95.9 kPa	–	4.89 ± 0.03
99.3 kPa	–	5.1 ± 0.03
102.8 kPa	–	5.38 ± 0.03
108.9 kPa	–	5.66 ± 0.03
121.1 kPa	–	6.31 ± 0.03
127.3 kPa	–	6.62 ± 0.03
139.4 kPa	–	7.29 ± 0.03
145.5 kPa	–	7.59 ± 0.03
151.6 kPa	–	7.92 ± 0.03
157.7 kPa	–	8.3 ± 0.04
168.6 kPa	–	8.79 ± 0.04
172.3 kPa	–	9.11 ± 0.04
176 kPa	–	9.23 ± 0.04
186.9 kPa	–	9.89 ± 0.04
190.6 kPa	–	10.07 ± 0.04
194.2 kPa	–	10.28 ± 0.04
201.5 kPa	–	10.61 ± 0.04
208.9 kPa	–	10.99 ± 0.04
216.2 kPa	–	11.48 ± 0.04
230.6 kPa	–	12.26 ± 0.04
237.9 kPa	–	12.55 ± 0.04
245.2 kPa	–	13.05 ± 0.04
252.4 kPa	–	13.5 ± 0.04
266.8 kPa	–	14.29 ± 0.04
274 kPa	–	14.64 ± 0.04
281 kPa	–	15 ± 0.04
295.2 kPa	–	15.84 ± 0.04
303.3 kPa	–	16.23 ± 0.04
310.5 kPa	–	16.69 ± 0.04
317.5 kPa	–	17.06 ± 0.04
324.5 kPa	–	17.51 ± 0.04
331.5 kPa	–	17.9 ± 0.04
338.4 kPa	–	18.25 ± 0.04
352.2 kPa	–	19.05 ± 0.04
359.1 kPa	–	19.45 ± 0.04
366 kPa	–	19.85 ± 0.04
379.7 kPa	–	20.59 ± 0.04
386.5 kPa	–	20.98 ± 0.04
393.2 kPa	–	21.4 ± 0.04
399.9 kPa	–	21.73 ± 0.04
413.4 kPa	–	22.49 ± 0.05
420.1 kPa	–	22.92 ± 0.05
426.9 kPa	–	23.28 ± 0.05
433.5 kPa	–	23.69 ± 0.05
443.2 kPa	–	24.38 ± 0.05
470.9 kPa	–	25.92 ± 0.05
484.7 kPa	–	26.77 ± 0.05
498.3 kPa	–	27.51 ± 0.05
515 kPa	–	28.53 ± 0.05
528 kPa	–	29.29 ± 0.05
541 kPa	–	30.15 ± 0.05
566.4 kPa	–	31.68 ± 0.06
575.8 kPa	33.42 ± 0.06	–
579.2 kPa	–	32.43 ± 0.06
590.5 kPa	34.28 ± 0.06	–
591.2 kPa	–	33.18 ± 0.06
603.3 kPa	–	33.86 ± 0.06
604.4 kPa	35.15 ± 0.06	–
617.9 kPa	35.97 ± 0.06	–
631.9 kPa	36.94 ± 0.06	–
638.4 kPa	–	36.05 ± 0.06
646.4 kPa	37.76 ± 0.06	–
655.4 kPa	–	37.08 ± 0.06
660.3 kPa	38.68 ± 0.06	–
672.1 kPa	–	38.15 ± 0.06
674.2 kPa	39.57 ± 0.06	–
688.2 kPa	40.47 ± 0.07	–
688.5 kPa	–	39.21 ± 0.06
701.9 kPa	41.42 ± 0.07	–
704.5 kPa	–	40.22 ± 0.06
715.6 kPa	42.26 ± 0.07	–
720.3 kPa	–	41.24 ± 0.07
729.6 kPa	43.14 ± 0.07	–
735.8 kPa	–	42.16 ± 0.07
743.3 kPa	44.1 ± 0.07	–
756.9 kPa	44.99 ± 0.07	–
765.5 kPa	–	44.05 ± 0.07
770.5 kPa	45.84 ± 0.07	–
783.7 kPa	46.78 ± 0.07	–
794.2 kPa	–	45.95 ± 0.07
797.6 kPa	47.61 ± 0.07	–
808 kPa	–	46.91 ± 0.07
810.7 kPa	48.57 ± 0.08	–
823.9 kPa	49.41 ± 0.08	–
827.5 kPa	–	48.2 ± 0.07
844.7 kPa	–	49.34 ± 0.08
850.2 kPa	51.23 ± 0.08	–
863 kPa	52.13 ± 0.08	–
863.4 kPa	–	50.7 ± 0.08
876.3 kPa	53.04 ± 0.08	–
889.1 kPa	53.92 ± 0.08	–
890.4 kPa	–	52.34 ± 0.08
902.2 kPa	54.71 ± 0.08	–
902.7 kPa	–	53.25 ± 0.08
914.9 kPa	55.73 ± 0.08	–
915.6 kPa	–	54.2 ± 0.08
928.7 kPa	56.6 ± 0.08	55.05 ± 0.08
941.5 kPa	57.53 ± 0.09	–
945.4 kPa	–	56.14 ± 0.08
954 kPa	58.46 ± 0.09	–
967.8 kPa	59.43 ± 0.09	–
972.6 kPa	–	58.01 ± 0.09
981 kPa	60.4 ± 0.09	–
985.8 kPa	–	58.92 ± 0.09
994.4 kPa	61.4 ± 0.09	–
1005.6 kPa	–	60.36 ± 0.09
1008.2 kPa	62.31 ± 0.09	–
1020.2 kPa	63.29 ± 0.1	–
1023.4 kPa	–	61.55 ± 0.09
1034.9 kPa	64.41 ± 0.1	–
1040.8 kPa	–	62.84 ± 0.09
1046.9 kPa	65.28 ± 0.1	–
1057.8 kPa	–	64.05 ± 0.09
1060.3 kPa	66.22 ± 0.1	–
1073.4 kPa	67.25 ± 0.1	–
1074 kPa	–	65.2 ± 0.1
1087.5 kPa	68.21 ± 0.1	–
1089.6 kPa	–	66.39 ± 0.1
1100.8 kPa	69.23 ± 0.1	–
1108 kPa	–	67.73 ± 0.1
1115.6 kPa	70.43 ± 0.1	–
1129.3 kPa	71.49 ± 0.11	–
1138.6 kPa	–	69.96 ± 0.1
1141.9 kPa	72.46 ± 0.11	–
1150.7 kPa	–	70.83 ± 0.1
1155.2 kPa	73.52 ± 0.11	–
1168.1 kPa	–	72.19 ± 0.11
1170.3 kPa	74.72 ± 0.11	–
1184.8 kPa	–	73.38 ± 0.11
1185.3 kPa	75.94 ± 0.11	–
1200.7 kPa	77.06 ± 0.11	–
1201.8 kPa	–	74.83 ± 0.11
1215.9 kPa	78.32 ± 0.11	–
1219.5 kPa	–	76.17 ± 0.11
1231.1 kPa	79.48 ± 0.12	–
1231.5 kPa	–	77.05 ± 0.11
1246.2 kPa	80.8 ± 0.12	–
1248.8 kPa	–	78.38 ± 0.11
1260.9 kPa	82.02 ± 0.12	–
1265.1 kPa	–	79.72 ± 0.12
1275.9 kPa	83.2 ± 0.12	–
1280.3 kPa	–	80.92 ± 0.12
1290.3 kPa	84.46 ± 0.12	–
1297.6 kPa	–	82.21 ± 0.12
1305.2 kPa	85.7 ± 0.13	–
1313.7 kPa	–	83.6 ± 0.12
1318.4 kPa	86.81 ± 0.13	–
1330.4 kPa	–	84.96 ± 0.12
1332.6 kPa	88.06 ± 0.13	–
1346.3 kPa	–	86.2 ± 0.13
1347.2 kPa	89.34 ± 0.13	–
1361.6 kPa	90.6 ± 0.13	–
1362.7 kPa	–	87.68 ± 0.13
1375.5 kPa	91.86 ± 0.14	–
1378.7 kPa	–	88.93 ± 0.13
1389.9 kPa	93.09 ± 0.14	–
1395.3 kPa	–	90.32 ± 0.13
1403.7 kPa	94.34 ± 0.14	–
1410.5 kPa	–	91.58 ± 0.13
1417.7 kPa	95.63 ± 0.14	–
1426.3 kPa	–	92.94 ± 0.14
1431.1 kPa	96.88 ± 0.14	–
1442.6 kPa	–	94.4 ± 0.14
1445 kPa	98.11 ± 0.14	–
1458.7 kPa	99.32 ± 0.15	–
1460.3 kPa	–	95.93 ± 0.14
1471.8 kPa	100.55 ± 0.15	–
1473.3 kPa	–	97.06 ± 0.15
1485.2 kPa	101.78 ± 0.15	–
1487.3 kPa	–	98.32 ± 0.14
1498.3 kPa	103.12 ± 0.15	–
1511.1 kPa	104.29 ± 0.16	–
1511.6 kPa	–	100.57 ± 0.15
1540.1 kPa	–	103.11 ± 0.15
1562.1 kPa	109.24 ± 0.16	–
1566 kPa	–	105.5 ± 0.16
1588.6 kPa	111.94 ± 0.17	–
1592.2 kPa	–	107.78 ± 0.16
1614.7 kPa	114.55 ± 0.17	–
1616.1 kPa	–	110.1 ± 0.17
1639.3 kPa	–	112.32 ± 0.17
1641.2 kPa	117.35 ± 0.18	–
1669.2 kPa	120.33 ± 0.18	–
1683.8 kPa	–	116.62 ± 0.18
1691 kPa	122.68 ± 0.19	–
1708.4 kPa	–	119.29 ± 0.18
1719.3 kPa	125.81 ± 0.19	–
1732.6 kPa	–	121.75 ± 0.19
1745.8 kPa	128.82 ± 0.2	–
1756.5 kPa	–	124.29 ± 0.19
1773.3 kPa	132.05 ± 0.21	–
1800.9 kPa	135.31 ± 0.21	–
1827.4 kPa	138.58 ± 0.22	–
1854.7 kPa	141.97 ± 0.23	–
1880.9 kPa	145.46 ± 0.24	–
1908.3 kPa	149.04 ± 0.24	–
1933.9 kPa	152.57 ± 0.26	–
1960.3 kPa	156.37 ± 0.27	–
1986.1 kPa	160.18 ± 0.27	–
2014.5 kPa	164.44 ± 0.28	–
2041.7 kPa	168.76 ± 0.3	–
2069.4 kPa	173.21 ± 0.31	–
2096.3 kPa	177.82 ± 0.33	–
2121.6 kPa	182.61 ± 0.35	–
2139 kPa	185.89 ± 0.35	–
2156.2 kPa	189.13 ± 0.36	–
2172.4 kPa	192.4 ± 0.39	–
2188.6 kPa	195.87 ± 0.4	–
2204.8 kPa	199.3 ± 0.41	–
2221.6 kPa	203.18 ± 0.46	–
2237.7 kPa	208.04 ± 1.8	–
2240 kPa	209.71 ± 1.7	–
2240.5 kPa	210.31 ± 1.7	–
2241 kPa	210.66 ± 1.6	–
2241.7 kPa	211.34 ± 5	–
2242.3 kPa	212.06 ± 5.2	–
2242.9 kPa	213.01 ± 5.5	–
2243.5 kPa	214.62 ± 5.6	–
2243.9 kPa	215.07 ± 5.9	–
2244.6 kPa	216.87 ± 6.2	–
2245.3 kPa	218.74 ± 0.99	–
2245.7 kPa	219.44 ± 1	–
2246.2 kPa	220.03 ± 1	–
2246.7 kPa	220.73 ± 2	–
2247.1 kPa	221.76 ± 2.1	–
2247.5 kPa	223.54 ± 2.3	–
2248 kPa	224.32 ± 2.3	–
2248.4 kPa	225.47 ± 2.4	–
2248.8 kPa	227.07 ± 2.5	–
2249.3 kPa	230.72 ± 2.8	–
2249.7 kPa	239.12 ± 3.7	–
